According to patent US8044098B2, “Use of hydroxybenzoic acids and their esters and analogues for preventing or treating virus infection” (Shenghua Guangzhou Pharmaceutical Science & Technology Co., …, priority 2005, dated 2011):

Legend:
HPV 16/18 = assay: Drug screening by quantitative fluorescent PCR analysis of HPV 16/18 in condyloma acuminata homogenate; parameters: species or system human papillomavirus (HPV); conditions: for HPV 16/18 Virus (copies/ml): 50 μl 10% micro emulsion + 50 μl HPV sample homogenate, 37° C., 24 hours, saline control 1.40 × 10^5; for HPV 16/18 detected by FQ-PCR (in words): 24 hours after adding the test compound
HPV 6/11 = assay: Drug screening by quantitative fluorescent PCR analysis of HPV 6/11 in condyloma acuminata homogenate; parameters: species or system human papillomavirus (HPV); conditions: for HPV 6/11 Virus (copies/ml): 50 μl 10% micro emulsion + 50 μl HPV sample homogenate, 37° C., 24 hours, saline control 1.45 × 10^6; for HPV 6/11 detected by FQ-PCR (in words): 24 hours after adding the test compound
[1] = test system: secretion of HBeAg by 2.2.15 cells; assay: Inhibition of secretion of HBeAg by Hepatitis B 2.2.15 cell line; type: cell-based, HBV; conditions: 1 μmol/ml; for HBeAg Inhibition Rate: 2.2.15 cells, supernatant collected three days later
Text: (§1) Hepatitis B 2.2.15 cell line was transfected by HBV DNA (purchased from Institute of Biochemistry and Cell Biology of Shanghai Institute for Biological Sciences or the National Center for Drug Screening) and used as the cell model for screening anti-HBV drug compounds (See Chinese Journal Of Integrated Traditional and Western Medicine on Liver Diseases, 2004, 14(3): 158). The cell culture medium DMEM (GIBCO Company), bovine serum (Hangzhou Siji Qing Biochemical Manufacturer), G418 (GIBCO Company), 3-(4,5-dimethylthiazol-2-yl)-2,5-diphenyltetrazoliumbromide (Sigma), HBsAg and HBeAg diagnostic kit (Shanghai Kehua Bio-engineering Co., Ltd).
(§2) The test compounds listed in Table 3 below were dissolved in a mixture containing 20 ml 1,2-propylene glycol and 15 ml Tween-80 and diluted with sterile saline water to 2 μmol/ml of the test compound. Then it was mixed with the cell culture medium at equal volume to obtain a solution containing 1 μmol/ml of the tested compound. Cells at the concentration of 1×10^5 cells per milliliter were inoculated to a 24-well plate at 1 ml/well. Supernatant from the cell culture mixture was collected three days later for testing.

[2] = test system: secretion of HBsAg by 2.2.15 cells; assay: Inhibition of secretion of HBsAg by Hepatitis B 2.2.15 cell line; type: cell-based, HBV; conditions: 1 μmol/ml; for HBsAg Inhibition rate: 2.2.15 cells, supernatant collected three days later
Text: as §1, §2

condyloma acuminata = assay: Clinical use in treating condyloma acuminata; type: in vivo, human; conditions: for treatment effect compared to recombinant human interferon α-2β gel: condyloma acuminata patients, 10% micro emulsion
Text: Soft hyperplasia with nipple or cauliflower shaped or other shaped warts were found around the skin of the cunnus or anus. The result from 5% acetate acid white test was positive.
Patients selected for the clinical observation must meet the above standards. Plus the diameter of their skin lesions should equal to or be less than 1 cm. […] Patients who had vaginal yeast, trichomonas, bacteria infection or other complications, chronic diseases, serious liver or kidney diseases or women in pregnancy or lactation were not selected. Treatments to women would not be conducted in their menstrual periods.
50 qualified patients were selected and randomly divided into five groups to be tested with p-hydroxybenzoic acid, gallic acid, ethyl p-hydroxybenzoate, propyl gallate and recombinant human interferon α-2β gel, respectively. The samples of p-hydroxybenzoic acid, gallic acid, ethyl p-hydroxybenzoate and propyl gallate were prepared as described in Example 1. The patients were treated with the test sample to the affected areas three times a day, in the morning, at noon and night. The samples were applied to cover the warts and the patients were required to leave the treated areas exposed and not to move for 20 minutes.
Observation time: 8 days. Patients not cured after 8 days would continue to use the test samples for another 12 weeks, and their prognosis was followed during the 12-week period.
Observed items: the location, shape, size and number of warts were carefully observed and recorded before the treatment.
“Recovered”: all skin lesions had disappeared;
“Obvious Effect”: more than 70% of the skin lesions had disappeared;
“Improved”: more than 30% of the skin lesions had disappeared;
“Not Effective”: less than 30% of the skin lesions had disappeared or the original skin lesions didn't change or even enlarged.

[3] = number of patients, more than 70% of the skin lesions disappeared

Row | SMILES | HPV 16/18 Virus (copies/ml) (HPV 16/18) | HPV 16/18 detected by FQ-PCR (in words) (HPV 16/18) | HPV 6/11 Virus (copies/ml) (HPV 6/11) | further results
1 | O=C(O)c1ccc(O)c(O)c1O [2,3,4-trihydroxybenzoic acid] | 0 copies/ml | no HPV 6/11 or HPV 16/18 was detected | 0 copies/ml | HPV 6/11 detected by FQ-PCR (in words) (HPV 6/11): no HPV 6/11 or HPV 16/18 was detected
2 | O=C(O)c1cccc(O)c1O [2,3-dihydroxybenzoic acid] | 3.20 × 10^3 copies/ml |  | 2.30 × 10^4 copies/ml | 
3 | O=C(O)c1ccc(O)cc1O [2,4-dihydroxybenzoic acid] | 4.60 × 10^3 copies/ml |  | 1.60 × 10^4 copies/ml | 
4 | O=C(O)c1ccc(O)c(O)c1 [3,4-dihydroxybenzoic acid] | 8.50 × 10^4 copies/ml |  | 1.90 × 10^4 copies/ml | effect on the secretion of HBeAg by the 2.2.15 cells (in words) [1]: had inhibition effect; HBeAg Inhibition Rate [1]: 8.92%; effect on the secretion of HBsAg by the 2.2.15 cells (in words) [2]: had inhibition effect; HBsAg Inhibition rate [2]: 9.81%
5 | O=C(O)c1cc(Cl)c(O)c(Cl)c1 [3,5-dicloro-4-hydroxybenzoic acid] | 2.60 × 10^4 copies/ml |  | 2.30 × 10^3 copies/ml | 
6 | O=C(O)c1ccc(O)c(Br)c1 [3-bromo-4-hydroxybenzoic acid] | 5.00 × 10^4 copies/ml |  | 3.40 × 10^3 copies/ml | 
7 | O=C(O)c1ccccc1 [Benzoic acid, benzoic acid] | 2.90 × 10^4 copies/ml |  | 3.60 × 10^5 copies/ml | 
8 | CCOC(=O)c1ccc(O)c(O)c1 [Ethyl 3,4-dihydroxybenzoate] |  |  |  | effect on the secretion of HBeAg by the 2.2.15 cells (in words) [1]: had inhibition effect; inhibition of HBeAg secretion compared with gallic acid and 3,4-dihydroxybenzoic acid [1]: more effective; HBeAg Inhibition Rate [1]: 6.04%; effect on the secretion of HBsAg by the 2.2.15 cells (in words) [2]: had inhibition effect; inhibition of HBsAg secretion compared with gallic acid and 3,4-dihydroxybenzoic acid [2]: more effective; HBsAg Inhibition rate [2]: 14.20%
9 | CCOC(=O)c1cc(O)c(O)c(O)c1 [Ethyl gallate] | 0 copies/ml | no HPV 6/11 or HPV 16/18 was detected | 0 copies/ml | HPV 6/11 detected by FQ-PCR (in words) (HPV 6/11): no HPV 6/11 or HPV 16/18 was detected
10 | CCOC(=O)c1ccc(O)cc1 [Ethyl p-hydroxybenzoate] | 0 copies/ml | not detected | 8.50 × 10^4 copies/ml | treatment effect compared to recombinant human interferon α-2β gel (condyloma acuminata): more apparent treatment effect; Recovered, 1-4 days (condyloma acuminata; number of patients (50 patients in five groups), 10% micro emulsion on affected areas three times a day, all skin lesions disappeared): 6; Recovered, 5-8 days (condyloma acuminata; number of patients, 10% micro emulsion three times a day, all skin lesions disappeared): 2; Obvious Effect, 1-4 days (condyloma acuminata; [3]): 2
11 | COC(=O)c1ccc(O)c(O)c1O [Methyl 2,3,4-trihydroxybenzoate] | 0 copies/ml | no HPV 6/11 or HPV 16/18 was detected | 0 copies/ml | HPV 6/11 detected by FQ-PCR (in words) (HPV 6/11): no HPV 6/11 or HPV 16/18 was detected
12 | COC(=O)c1cccc(O)c1O [Methyl 2,3-dihydroxybenzoate] | 4.20 × 10^2 copies/ml |  | 3.00 × 10^4 copies/ml | 
13 | COC(=O)c1ccc(O)cc1O [Methyl 2,4-dihydroxybenzoate] | 2.50 × 10^2 copies/ml |  | 5.20 × 10^4 copies/ml | 
14 | COC(=O)c1ccc(O)c(O)c1 [Methyl 3,4-dihydroxybenzoate] | 6.00 × 10^2 copies/ml |  | 8.50 × 10^4 copies/ml | 
15 | COC(=O)c1cc(O)c(O)c(O)c1 [Methyl gallate] | 0 copies/ml | no HPV 6/11 or HPV 16/18 was detected | 0 copies/ml | HPV 6/11 detected by FQ-PCR (in words) (HPV 6/11): no HPV 6/11 or HPV 16/18 was detected
16 | CCCCCCCCOC(=O)c1cccc(O)c1O [Octyl 2,3-dihydroxybenzoate] | 1.50 × 10^2 copies/ml |  | 2.20 × 10^2 copies/ml | 
17 | CCCCCCCCOC(=O)c1cc(O)c(O)c(O)c1 [Octyl gallate] | 0 copies/ml | no HPV 6/11 or HPV 16/18 was detected | 0 copies/ml | HPV 6/11 detected by FQ-PCR (in words) (HPV 6/11): no HPV 6/11 or HPV 16/18 was detected
18 | CCCOC(=O)c1ccc(O)c(O)c1O [Propyl 2,3,4-trihydroxybenzoate] | 0 copies/ml | no HPV 6/11 or HPV 16/18 was detected | 0 copies/ml | HPV 6/11 detected by FQ-PCR (in words) (HPV 6/11): no HPV 6/11 or HPV 16/18 was detected
19 | O=C(O)c1ccccc1O [Salicylic acid, salicylic acid, reference compound] | 2.60 × 10^4 copies/ml |  | 5.50 × 10^5 copies/ml | 
20 | CCCCCCCCCCCCOC(=O)c1cc(O)c(O)c(O)c1 [dodecyl gallate, Dodecyl gallate] | 4.90 × 10^4 copies/ml |  | 6.70 × 10^4 copies/ml | 
21 | O=C(O)c1ccc(O)cc1 [p-hydroxybenzoic acid] | 1.30 × 10^3 copies/ml |  | 7.00 × 10^5 copies/ml | treatment effect compared to recombinant human interferon α-2β gel (condyloma acuminata): more apparent treatment effect; Not Effective (condyloma acuminata; number of patients, less than 30% of the skin lesions disappeared, observation 8 days): 3; Improved (condyloma acuminata; number of patients, more than 30% of the skin lesions disappeared, observation 8 days): 2; Obvious Effect, 5-8 days (condyloma acuminata; [3]): 5
